43 molecules from patent US20220135538A1, “P300/CBP HAT INHIBITORS AND METHODS FOR THEIR USE” (Constellation Pharmaceuticals, Inc., priority 2019, published 2022) can be followed below.

The target in the experiment is T1, p300 HAT domain (residues 1287-1666) (Homo sapiens, UniProt Q09472).
T1 construct: The p300 HAT domain (residues 1287-1666) was expressed; His tag (N); made in house; host or cells: Escherichia coli
T1 sequence (Q09472 1287-1666): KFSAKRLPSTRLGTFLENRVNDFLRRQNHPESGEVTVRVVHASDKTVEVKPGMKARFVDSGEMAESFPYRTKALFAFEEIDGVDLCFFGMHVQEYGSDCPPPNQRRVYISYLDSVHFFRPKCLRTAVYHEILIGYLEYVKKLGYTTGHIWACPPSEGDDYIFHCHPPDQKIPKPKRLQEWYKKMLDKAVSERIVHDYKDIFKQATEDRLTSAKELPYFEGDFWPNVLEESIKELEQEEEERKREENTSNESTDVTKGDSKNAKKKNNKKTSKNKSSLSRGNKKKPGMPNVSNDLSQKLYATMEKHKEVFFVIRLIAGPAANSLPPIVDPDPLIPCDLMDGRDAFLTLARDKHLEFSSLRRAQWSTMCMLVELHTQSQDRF
The experiment is described as follows: P300 HAT SPA assay (scintillation proximity, acetylation of biotinylated H3(1-21) peptide). Type of experiment: biochemical. The settings on record: 6 nM p300-HAT domain; average of at least 2 replicate titrations. Here is the method:
The activity of the compounds described herein as p300/CBP HAT inhibitors may be readily determined using a scintillation proximity assay (SPA) methodology (Udenfriend, S.; Gerber, L.; Nelson, N. Scintillation Proximity Assay: A Sensitive and Continuous Isotopic Method for Monitoring Ligand/Receptor and Antigen/Antibody Interactions. Anal. Biochem. 1987, 161, 494-500).
In a typical experiment the p300 HAT inhibitory activity of the compounds described herein was determined in accordance with the following experimental method.
The p300 HAT domain (residues 1287-1666) was expressed and purified with an N-terminal His tag from Escherichia coli cells. The expressed protein was purified by Ni2+affinity, followed by anion exchange chromatography. Appropriate fractions were pooled and buffer exchanged into 20 mM Hepes pH 7.5, 150 mM NaCl, and 1 mM TCEP.
Compounds of interest solubilized in DMSO were stamped in a Greiner black 384-well plate in a 10-point duplicate dose response using an Echo 550 (Labcyte). p300-HAT domain purified in-house (aa 1287-1666) was diluted to 6 nM in reaction buffer (50 mM Tris pH 8.0, 100 mM NaCl, 1 mM DTT, 0.069 mM Brij-35, 0.1 mM EDTA, 0.1 mg/mL BSA), combined with 4.14 μM AcCoA (Sigma-Aldrich) and 0.46 μM ^3H-AcCoA (PerkinElmer), and 12.5 μL added to each well and incubated for 30 min at RT. Reactions were initiated with 12.5 μL 2 μM biotinylated H3(1-21) peptide (New England Peptide) and run for 1 hr at RT, then quenched with 20 μL stop solution (200 mM Tris pH 8.0, 200 mM EDTA, 2M NaCl, 160 μM anacardic acid). 35 μL of the reaction volume was transferred to a 384-well streptavidin FlashPlate (PerkinElmer) using a Bravo liquid handler (Velocity 11) and incubated for 1.5 hr at RT. Plates were aspirated, washed with 95 μL wash buffer (15 mM Tris pH 8.5, 0.069 μM Brij-35), aspirated, sealed, and scintillation counts read on a Topcount (PerkinElmer). Data were analyzed in Genedata to determine inhibitor IC50 values.
For the molecule `CC(=O)N1CC(Oc2ccc(NC(=O)C(NC[C@@H](C)c3ccc(C#N)cc3)c3ccccc3)nc2)C1` (single isomer, unassigned) [2 Isomer 2], the concentration for half-maximal inhibition (IC50) (usually the point on the concentration scale where inhibition reaches its midpoint) is more than 2000 nM.
As for `CN1CC(Oc2ccc(NC(=O)C(NCCc3ccc(Cl)cc3)c3ccccc3)nc2)CN(C)C1=O` (single isomer, unassigned) [3 Isomer 1], the figure is more than 2000 nM; as for `CN1CC(Oc2ccc(NC(=O)C(NCCc3ccc(Cl)cc3)c3ccccc3)nc2)CN(C)C1=O` (single isomer, unassigned) [3 Isomer 2], 117 nM; as for `N#Cc1ccc(CCNC(C(=O)Nc2ccc(O[C@@H]3CCOC3)cn2)c2ccccc2)cc1` (single isomer, unassigned) [4 Isomer 1], 91.4 nM.
Take `N#Cc1ccc(CCNC(C(=O)Nc2ccc(O[C@@H]3CCOC3)cn2)c2ccccc2)cc1` (single isomer, unassigned) [4 Isomer 2]: the IC50 is more than 2000 nM.
Consider `N#Cc1ccc(CCNC(C(=O)Nc2ccc(OC3COC3)cn2)c2ccccc2)cc1` (single isomer, unassigned) [6 Isomer 1], for which the IC50 was 39.9 nM.
In the case of `N#Cc1ccc(CCNC(C(=O)Nc2ccc(OC3COC3)cn2)c2ccccc2)cc1` (single isomer, unassigned) [6 Isomer 2], the IC50 is 1140 nM.
Take `O=C(Nc1ccc(OCCn2cccn2)cn1)C(NCCc1ccc(Cl)cc1)c1ccccc1` (single isomer, unassigned) [7 Isomer 1]: the concentration for half-maximal inhibition (IC50) was more than 2000 nM.
`O=C(Nc1ccc(OCCn2cccn2)cn1)C(NCCc1ccc(Cl)cc1)c1ccccc1` (single isomer, unassigned) [7 Isomer 2] displayed an IC50 of 98.5 nM.
Molecule `Cn1cc(COc2ccc(NC(=O)C(NCCc3ccc(Cl)cc3)c3ccccc3)nc2)cn1` (single isomer, unassigned) [8 Isomer 1] had an IC50 of 1360 nM.
Consider `CN1CC(Oc2ccc(NC(=O)C(NCCc3ccc(Cl)cc3)c3ccccc3)nc2)CCC1=O` (single isomer, unassigned) [10 Isomer 1], for which the IC50 came to 94.2 nM.
As for `CN1CC(Oc2ccc(NC(=O)C(NCCc3ccc(Cl)cc3)c3ccccc3)nc2)CCC1=O` (single isomer, unassigned) [10 Isomer 2], the figure is more than 2000 nM; as for `CN1CC(Oc2ccc(NC(=O)C(NCCc3ccc(Cl)cc3)c3ccccc3)nc2)CCC1=O` (single isomer, unassigned) [10 Isomer 3], 45.4 nM.
`CN1CC(Oc2ccc(NC(=O)C(NCCc3ccc(Cl)cc3)c3ccccc3)nc2)CCC1=O` (single isomer, unassigned) [10 Isomer 4] displayed an IC50 of more than 2000 nM.
`CN1CCC(Oc2ccc(NC(=O)C(NCCc3ccc(Cl)cc3)c3ccccc3)nc2)CC1` (single isomer, unassigned) [11 Isomer 1] showed an IC50 of 26.6 nM.
With `CN1CCC(Oc2ccc(NC(=O)C(NCCc3ccc(Cl)cc3)c3ccccc3)nc2)CC1` (single isomer, unassigned) [11 Isomer 2] the figure was more than 2000 nM; with `CN1CCC(Oc2ccc(NC(=O)C(NCCc3ccc(C#N)cc3)c3ccccc3)nc2)C1=O` (single isomer, unassigned) [12 Isomer 1], 65 nM.
As for `CN1CCC(Oc2ccc(NC(=O)C(NCCc3ccc(C#N)cc3)c3ccccc3)nc2)C1=O` (single isomer, unassigned) [12 Isomer 2], the figure is 63 nM.
Molecule `CN1CCC(Oc2ccc(NC(=O)C(NCCc3ccc(C#N)cc3)c3ccccc3)nc2)C1=O` (single isomer, unassigned) [12 Isomer 3] displayed an IC50 of more than 2000 nM.
In the case of `CN1CCC(Oc2ccc(NC(=O)C(NCCc3ccc(C#N)cc3)c3ccccc3)nc2)C1=O` (single isomer, unassigned) [12 Isomer 4], the IC50 was more than 2000 nM.
Molecule `CC(=O)N1CC[C@H](Oc2ccc(NC(=O)C(NCCc3ccc(C#N)cc3)c3ccccc3)nc2)C1` (single isomer, unassigned) [13 Isomer 1] came in with an IC50 of more than 2000 nM.
With `CC(=O)N1CC[C@H](Oc2ccc(NC(=O)C(NCCc3ccc(C#N)cc3)c3ccccc3)nc2)C1` (single isomer, unassigned) [13 Isomer 2], the IC50 was 59.9 nM.
`CC(=O)N1CC[C@@H](Oc2ccc(NC(=O)C(NCCc3ccc(C#N)cc3)c3ccccc3)nc2)C1` (single isomer, unassigned) [14 Isomer 1] registered an IC50 of 36.2 nM.
With `CC(=O)N1CC[C@@H](Oc2ccc(NC(=O)C(NCCc3ccc(C#N)cc3)c3ccccc3)nc2)C1` (single isomer, unassigned) [14 Isomer 2] the figure was more than 2000 nM.
The molecule `CC(=O)N1CCC[C@H](Oc2ccc(NC(=O)C(NCCc3ccc(C#N)cc3)c3ccccc3)nc2)C1` (single isomer, unassigned) [15 Isomer 1] gave an IC50 of 272 nM.
Turning to `CC(=O)N1CCC[C@H](Oc2ccc(NC(=O)C(NCCc3ccc(C#N)cc3)c3ccccc3)nc2)C1` (single isomer, unassigned) [15 Isomer 2], the IC50 was more than 2000 nM.
Turning to `CC(=O)N1CCC[C@@H](Oc2ccc(NC(=O)C(NCCc3ccc(C#N)cc3)c3ccccc3)nc2)C1` (single isomer, unassigned) [16 Isomer 1], the IC50 was 164 nM.
As for `CC(=O)N1CCC[C@@H](Oc2ccc(NC(=O)C(NCCc3ccc(C#N)cc3)c3ccccc3)nc2)C1` (single isomer, unassigned) [16 Isomer 2], the figure is more than 2000 nM.
`CC(CNC(C(=O)Nc1ccc(Oc2cnn(C)c2)cn1)c1ccccc1)c1ccc(C#N)cc1` (single isomer, unassigned) [17 Isomer 1] came in with an IC50 of 33.7 nM.
Molecule `CC(CNC(C(=O)Nc1ccc(Oc2cnn(C)c2)cn1)c1ccccc1)c1ccc(C#N)cc1` (single isomer, unassigned) [17 Isomer 2] came in with an IC50 of more than 2000 nM.
In turn, `CC(CNC(C(=O)Nc1ccc(Oc2cnn(C)c2)cn1)c1ccccc1)c1ccc(C#N)cc1` (single isomer, unassigned) [17 Isomer 3] displayed an IC50 of more than 2000 nM.
Molecule `CC(CNC(C(=O)Nc1ccc(Oc2cnn(C)c2)cn1)c1ccccc1)c1ccc(C#N)cc1` (single isomer, unassigned) [17 Isomer 4] had an IC50 of more than 2000 nM.
With `CC(Oc1ccc(NC(=O)C(NCCc2ccc(C#N)cc2)c2ccccc2)nc1)c1cnn(C)c1` (single isomer, unassigned) [18 Isomer 1] the figure was 311 nM.
The molecule `CC(Oc1ccc(NC(=O)C(NCCc2ccc(C#N)cc2)c2ccccc2)nc1)c1cnn(C)c1` (single isomer, unassigned) [18 Isomer 2] had an IC50 of 209 nM.
Consider `CC(Oc1ccc(NC(=O)C(NCCc2ccc(C#N)cc2)c2ccccc2)nc1)c1cnn(C)c1` (single isomer, unassigned) [18 Isomer 3], for which the IC50 is more than 2000 nM.
As to `CC(Oc1ccc(NC(=O)C(NCCc2ccc(C#N)cc2)c2ccccc2)nc1)c1cnn(C)c1` (single isomer, unassigned) [18 Isomer 4], the IC50 is more than 2000 nM.
In turn, `N#Cc1ccc(CCNC(C(=O)Nc2ccc(OCCN3CCOC3=O)cn2)c2ccccc2)cc1` (single isomer, unassigned) [19 Isomer 1] showed an IC50 of 56.6 nM.
`N#Cc1ccc(CCNC(C(=O)Nc2ccc(OCCN3CCOC3=O)cn2)c2ccccc2)cc1` (single isomer, unassigned) [19 Isomer 2] gave an IC50 of more than 2000 nM.
For `CC(CNC(C(=O)Nc1ccc(OC2CCN(C(=O)C3CC3)CC2)cn1)c1ccccc1)c1ccc(C#N)cc1` (single isomer, unassigned) [20 Isomer 1], the IC50 is more than 2000 nM.
`CC(CNC(C(=O)Nc1ccc(OC2CCN(C(=O)C3CC3)CC2)cn1)c1ccccc1)c1ccc(C#N)cc1` (single isomer, unassigned) [20 Isomer 2] showed an IC50 of 26.7 nM.
With `CC(CNC(C(=O)Nc1ccc(OC2CN(C(=O)C3CC3)C2)cn1)c1ccccc1)c1ccc(C#N)cc1` (single isomer, unassigned) [21 Isomer 2], the IC50 was more than 2000 nM.
Regarding `Cc1cnc(Oc2ccc(NC(=O)C(NCCc3ccc(C#N)cc3)c3ccccc3)nc2)nc1` (single isomer, unassigned) [22 Isomer 1], the IC50 is more than 2000 nM.
The molecule `Cc1cnc(Oc2ccc(NC(=O)C(NCCc3ccc(C#N)cc3)c3ccccc3)nc2)nc1` (single isomer, unassigned) [22 Isomer 2] came in with an IC50 of 1390 nM.
